Experiments:
Format in all cases: in vivo
[1] = test system: woolly cupgrass (Eriochloa villosa); assay: Test C preemergence; conditions: for Plant response rating (0 to 100), Cupgrass, Woolly: visual evaluation after 12 to 14 days
Method in brief: (§1)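 Seeds are planted and treated before emergence; for the postemergence test, plants at 1- to 4-leaf stage (2–18 cm) receive the same formulation, a solvent blend containing surfactant. Plants stay in the greenhouse 12–14 days, then response is scored visually from 0 (none) to 100 (complete control).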

corn (Zea mays) [2] = assay: Test C preemergence; conditions: for Plant response rating (0 to 100), Corn: visual evaluation after 12 to 14 days
Method in brief: as §1

[3] = test system: yellow nutsedge (Cyperus esculentus); assay: Test C preemergence
Method in brief: as §1

soybean (Glycine max) = assay: Test C preemergence
Method in brief: as §1

[4] = test system: pigweed (Amaranthus retroflexus); assay: Test C preemergence
Method in brief: as §1

kochia (Kochia scoparia) = assay: Test C preemergence; conditions: for Plant response rating (0 to 100), Kochia: visual evaluation after 12 to 14 days
Method in brief: as §1

[5] = test system: johnsongrass (Sorghum halepense); assay: Test C preemergence; conditions: for Plant response rating (0 to 100), Johnsongrass: visual evaluation after 12 to 14 days
Method in brief: as §1

[6] = test system: lambsquarters (Chenopodium album); assay: Test C preemergence
Method in brief: as §1

Nightshade [7] = assay: Test C preemergence
[8] = test system: barnyardgrass (Echinochloa crus-galli); assay: Test B postemergence; conditions: 13 to 15 days
Method in brief: (§2)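 Ratings on a 0 to 100 visual scale (100 complete control) compare treated plants with controls 13 to 15 days after application. Treatments were pre- or postemergence sprays of compound in non-phytotoxic solvent with surfactant.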

corn (Zea mays) [9] = assay: Test B postemergence; conditions: 13 to 15 days
Method in brief: as §2

wild oat (Avena fatua) = assay: Test B postemergence; conditions: 13 to 15 days
Method in brief: as §2

[10] = test system: wheat (Triticum aestivum); assay: Test B postemergence; conditions: 13 to 15 days
Method in brief: as §2

[11] = test system: smallflower flatsedge (Cyperus difformis); assay: Test C flooded paddy test; conditions: for Flatsedge plant response rating: Flooded Paddy, scale 0 to 100, 0 no effect, 100 complete control; for Plant response rating, Flatsedge: flooded paddy test, scale 0 to 100 (0 no effect, 100 complete control)
Method in brief: (§3)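 Greenhouse-maintained for 12 to 14 days after treatment, the paddy plants (2-leaf stage at application) were scored visually against controls. A score of 0 denotes no effect and a score of 100 denotes complete control.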

[12] = test system: barnyardgrass (Echinochloa crus-galli); assay: Test C flooded paddy test; conditions: for Barnyardgrass plant response rating: Flooded Paddy, scale 0 to 100, 0 no effect, 100 complete control; for Plant response rating, Barnyardgrass: flooded paddy test, scale 0 to 100 (0 no effect, 100 complete control)
Method in brief: as §3

[13] = test system: duck salad (Heteranthera limosa); assay: Test C flooded paddy test; conditions: for Ducksalad plant response rating: Flooded Paddy, scale 0 to 100, 0 no effect, 100 complete control; for Plant response rating, Ducksalad: flooded paddy test, scale 0 to 100 (0 no effect, 100 complete control)
Method in brief: as §3

rice (Oryza saliva) = assay: Test C flooded paddy test; conditions: for Rice plant response rating: Flooded Paddy, scale 0 to 100, 0 no effect, 100 complete control; for Plant response rating, Rice: flooded paddy test, scale 0 to 100 (0 no effect, 100 complete control)
Method in brief: as §3

Sunflower = assay: Test C preemergence; conditions: Rate 250 g/ha, scale 0 to 100, 0 no effect, 100 complete control
Nightshade [14] = assay: Test C preemergence; conditions: Rate 500 g/ha, visual evaluation after 12 to 14 days
[15] = Rate 125 g/ha, scale 0 to 100, 0 no effect, 100 complete control
[16] = preemergence, Rate 62 g/ha, scale 0 to 100
[17] = preemergence, Rate 500 g/ha, visual evaluation after 12 to 14 days
[18] = preemergence, Rate 250 g/ha, scale 0 to 100, 0 no effect, 100 complete control
[19] = Rate 125 g/ha, scale 0 (no effect) to 100 (complete control)
[20] = Rate 500 g/ha, scale 0 to 100, 0 is no effect, 100 is complete control

Structure (SMILES): COc1cccc(N2CCC(n3ccc(C(C)(C)C)n3)C2=O)c1 (stereo not shown) [Compound 87]
- Plant response rating, Cupgrass, Woolly [1, 15]: 100
- Plant response rating, Cupgrass, Woolly [1, 16]: 90
- Plant response rating (0 to 100), Cupgrass, Woolly ([1]; preemergence, Rate 250 g/ha): 100
- Plant response rating (0 to 100), Cupgrass, Woolly ([1]; preemergence, Rate 500 g/ha): 100
- Plant response rating, Corn (corn (Zea mays) [2]; [15]): 70
- Plant response rating, Corn (corn (Zea mays) [2]; [16]): 40
- Plant response rating (0 to 100), Corn (corn (Zea mays) [2]; preemergence, Rate 250 g/ha): 70
- Plant response rating (0 to 100), Corn (corn (Zea mays) [2]; preemergence, Rate 500 g/ha): 80
- Plant response rating, Nutsedge [3, 15]: 20
- Plant response rating, Nutsedge [3, 16]: 20
- Plant response rating (0 to 100), Nutsedge [3, 17]: 20
- Plant response rating, Nutsedge [3, 18]: 20
- Plant response rating, Soybean (soybean (Glycine max); [15]): 20
- Plant response rating, Soybean (soybean (Glycine max); [16]): 0
- Plant response rating (0 to 100), Soybean (soybean (Glycine max); [17]): 30
- Plant response rating, Soybean (soybean (Glycine max); [18]): 20
- Plant response rating, Pigweed [4, 15]: 0
- Plant response rating, Pigweed [4, 16]: 0
- Plant response rating (0 to 100), Pigweed [4, 17]: 100
- Plant response rating, Pigweed [4, 18]: 100
- Plant response rating, Kochia (kochia (Kochia scoparia); [15]): 100
- Plant response rating, Kochia (kochia (Kochia scoparia); [16]): 100
- Plant response rating (0 to 100), Kochia (kochia (Kochia scoparia); preemergence, Rate 250 g/ha): 100
- Plant response rating (0 to 100), Kochia (kochia (Kochia scoparia); preemergence, Rate 500 g/ha): 100
- Plant response rating, Johnsongrass [5, 15]: 90
- Plant response rating, Johnsongrass [5, 16]: 90
- Plant response rating (0 to 100), Johnsongrass ([5]; preemergence, Rate 250 g/ha): 100
- Plant response rating (0 to 100), Johnsongrass ([5]; preemergence, Rate 500 g/ha): 100
- Plant response rating, Lambsquarters [6, 15]: 100
- Plant response rating, Lambsquarters [6, 16]: 100
- Plant response rating (0 to 100), Lambsquarters [6, 17]: 100
- Plant response rating, Lambsquarters [6, 18]: 100
- Plant response rating, Nightshade (Nightshade [7]; Rate 62 g/ha, scale 0 to 100): 0
- Plant response rating, Nightshade (Nightshade [7]; [15]): 10
- Plant response rating, Nightshade (Nightshade [7]; Rate 250 g/ha, scale 0 to 100, 0 no effect, 100 complete control): 60
- Plant response rating, Barnyardgrass [8, 19]: 0
- Plant response rating, Barnyardgrass [8, 20]: 30
- Plant response rating, Corn (corn (Zea mays) [9]; [19]): 0
- Plant response rating, Corn (corn (Zea mays) [9]; [20]): 0
- Plant response rating, Wild Oat (wild oat (Avena fatua); [19]): 0
- Plant response rating, Wild Oat (wild oat (Avena fatua); [20]): 0
- Plant response rating, Wheat [10, 19]: 0
- Plant response rating, Wheat [10, 20]: 0
- Flatsedge plant response rating ([11]; Rate 250 g/ha): 100
- Flatsedge plant response rating ([11]; Rate 500 g/ha): 100
- Plant response rating, Flatsedge ([11]; Rate 62 g/ha): 0
- Plant response rating, Flatsedge ([11]; Rate 125 g/ha): 100
- Barnyardgrass plant response rating ([12]; Rate 250 g/ha): 70
- Barnyardgrass plant response rating ([12]; Rate 500 g/ha): 100
- Plant response rating, Barnyardgrass ([12]; Rate 62 g/ha): 0
- Plant response rating, Barnyardgrass ([12]; Rate 125 g/ha): 70
- Ducksalad plant response rating ([13]; Rate 250 g/ha): 50
- Ducksalad plant response rating ([13]; Rate 500 g/ha): 100
- Plant response rating, Ducksalad ([13]; Rate 62 g/ha): 0
- Plant response rating, Ducksalad ([13]; Rate 125 g/ha): 50
- Rice plant response rating (rice (Oryza saliva); Rate 250 g/ha): 20
- Rice plant response rating (rice (Oryza saliva); Rate 500 g/ha): 80
- Plant response rating, Rice (rice (Oryza saliva); Rate 62 g/ha): 0
- Plant response rating, Rice (rice (Oryza saliva); Rate 125 g/ha): 20
- Plant response rating, Sunflower (Sunflower): 20
- Plant response rating (0 to 100), Nightshade (Nightshade [14]): 90

Source: patent US7138361B2, “Herbicidal heterocycles” (E. I. du Pont de Nemours and Company, priority 2000, dated 2006)
